Test results from US20250002526A1, “PHARMACEUTICAL COMPOSITION HAVING ANTI-CANCER IMMUNOSTIMULATING EFFECT AND/OR IMMUNE CHECKPOINT INHIBITION POTENTIATING EFFECT” (KYUSHU UNIVERSITY, NATIONAL UNIVERSITY CORPORATION, priority 2021, published 2025).
“Also recorded” adds a separate entry of the source.

How the values were obtained:
[1] = test system: E0771-SULT-OVA cells; assay: In vivo tumor growth of E0771-SULT-OVA cells with OTII T cell transfer; set-up: species or system mouse; conditions: activated OTII T cells i.v. day 9, cholenoic acid oral days 12, 13 and 14
Procedure: (§1) In T cell transfer experiment, activated OTII CD4^+ T cells (2×10^6) and OTI CD8^+ T cells (5×10^5) were intravenously injected into tumor-bearing mice (see experimental results (4)).
(§2) Cholenoic acid was suspended in 0.5% (w/v) methylcellulose 400 solution (FUJIFILM Wako Pure Chemical Corporation) at a proportion of 50 mg/ml, and a 200-μl portion (10 mg) of the suspension was orally administered to mice (see experimental results (6)). To examine the effect on the tumor infiltration of OTII cells or OTI T cells, 5 mg of cholenoic acid was orally administered three times at intervals of 6 hours in 2 days before the assay.
(§3) CD4^+ T cells or CD8^+ T cells were magnetically selected from the spleen and peripheral lymph nodes of OTII and OTI TCR transgenic mice with Dynabeads mouse CD4 (Invitrogen), and then treated with DETACHaBEAD™ mouse CD4 (Invitrogen) or separated with a CD8a^+ T Cell Isolation Kit (Miltenyi Biotec). […]
(§4) The growth of tumors was monitored by measuring the vertical diameters of each tumor with a caliper twice a week and calculating the tumor volumes from the following expression.

[2] = test system: E.G7-OVA-SULT cells; assay: In vivo tumor growth of E.G7-OVA-SULT cells with OTI T cell transfer; set-up: species or system mouse; conditions: activated OTI T cells i.v. day 10, cholenoic acid oral days 13, 14 and 15
Procedure: as §1, §2, §3, §4

C[C@H](CCC(=O)O)[C@H]1CC[C@H]2[C@@H]3CC=C4C[C@@H](O)CC[C@]4(C)[C@H]3CC[C@]12C [Compound 1, (R)-4-((3S,8S,9S,10R,13R,14S,17R)-3-hydroxy-10,13-dimethyl-2,3,4,7,8,9,10,11,12,13,14,15,16,17-tetradecahydro-1H-cyclopenta[a]phenanthren-17-yl)pentanoic acid]
growth of E0771-SULT-OVA cells / anti-tumor immunity of OTII T cells [1]: recovery of the effect of OTII cell or OTI T cell transplantation; also recorded: the growth of E0771-SULT-OVA cells was suppressed
growth of E.G7-OVA-SULT cells / anti-tumor immunity of OTI T cells [2]: recovery of the effect of OTII cell or OTI T cell transplantation; also recorded: the growth of E.G7-OVA-SULT cells was suppressed
